Earlier results, collected in US20230355939A1, “DEVICES AND METHODS FOR CONTINUOUS EXTRUSION OF A DRUG INTO THE MOUTH” (SynAgile Corporation, priority 2020, published 2023).

How the values were obtained:
[1] = for Approximate Pressure (vapor pressure): at 37° C.

| solubility | vapor pressure ([1]; at about 23 ± 3° C.) | SMILES | Approximate Pressure (vapor pressure) [1] |
| --- | --- | --- | --- |
|  |  | FC1(F)C(F)(F)C(F)(F)C1(F)F [octafluorocyclobutane] | ~4.3 bars |
|  |  | CCOCC [diethyl ether] | ~1.1 bars |
|  |  | CCC(C)C [isopentane] | ~1.4 bars |
|  |  | FC(C(F)(F)F)C(F)(F)F [1,1,1,2,3,3,3-hepta-fluoropropane] | ~6.4 bars |
|  |  | CCCF [1-fluoropropane] | ~4.1 bars |
|  |  | CC(C)F [2-fluoropropane] | ~5 bars |
|  |  | CCCCF [1-fluorobutane] | ~1.3 bars |
|  |  | CC=CC [2-butene] | ~3.2 bars |
|  |  | C=CC [propene] | ~15.5 bars |
|  |  | CCC [propane] | ~12.8 bars |
| about 50 mg/mL |  | N[C@@H](Cc1ccc(O)c(O)c1)C(=O)O [LD, levodopa] |  |
|  |  | FC(F)(F)CC(F)(F)F [1,1,1,3,3,3 hexafluoropropane] | ~4.0 bars |
|  |  | CCCC [butane] | ~3.5 bars |
|  |  | CC(C)(C)C [neopentane] | ~2.4 bars |
|  |  | CCOC [methyl ethyl ether] | ~3 bars |
|  | about 5 bars | FCC(F)(F)F [1,1,1,2-tetrafluoroethane] | ~9.3 bars |
|  |  | FCCF [1,2-difluoroethane] | ~1.9 bars |
